# Tests used:
# PD-L1 = target: T1, PD-L1 (Mus musculus, UniProt Q9EP73); assay: Rescue of mouse splenocyte proliferation in the presence of recombinant PD-L1 (CFSE proliferation assay); type: cell-based; settings: 100 nM compound; anti-CD3/CD28 stimulated mouse splenocytes + PD-L1; 72 h; read-out: PDL1 (rescue of proliferation @ 100 nM)
# T1 construct: Fc (Fc chimera); purchased R&D Systems 1019-B7-100
# Protocol: Example 1: Rescue of Mouse Splenocyte Proliferation in the Presence of Recombinant PD-L1/PD-L2
# Recombinant mouse PD-L1 (rm-PDL-1, cat no: 1019-B7-100; R&D Systems) were used as the source of PD-L1.
# Mouse splenocytes harvested from 6-8 weeks old C57 BL6 mice; RPMI 1640 (GIBCO, Cat #11875); DMEM with high glucose (GIBCO, Cat #D6429); Fetal Bovine Serum [Hyclone, Cat #SH30071.03]; Penicillin (10000 unit/mL)-Streptomycin (10,000 μg/mL) Liquid (GIBCO, Cat #15140-122); MEM Sodium Pyruvate solution 100 mM (100×)), Liquid (GIBCO, Cat #11360); Nonessential amino acid (GIBCO, Cat #11140); L-Glutamine (GIBCO, Cat #25030); Anti-CD3 antibody (eBiosciences—16-0032); Anti-CD28 antibody (eBiosciences—16-0281); ACK lysis buffer (1 mL) (GIBCO, Cat #-A10492); Histopaque (density—1.083 gm/mL) (SIGMA 10831); Trypan blue solution (SIGMA-T8154); 2 mL Norm Ject Luer Lock syringe-(Sigma 2014-12); 40 μm nylon cell strainer (BD FALCON 35230); Hemacytometer (Bright line-SIGMA Z359629); FACS Buffer (PBS/0.1% BSA): Phosphate Buffered Saline (PBS) pH 7.2 (HiMedia TS1006) with 0.1% Bovine Serum Albumin (BSA) (SIGMA A7050) and sodium azide (SIGMA 08591); 5 mM stock solution of CFSE: CFSE stock solution was prepared by diluting lyophilized CFSE with 180 μL of Dimethyl sulfoxide (DMSO C2H6SO, SIGMA-D-5879) and aliquoted in to tubes for further use. Working concentrations were titrated from 10 μM to 1 μM. (eBioscience-650850-85); 0.05% Trypsin and 0.02% EDTA (SIGMA 59417C); 96-well format ELISA plates (Corning CLS3390); BD FACS caliber (E6016); Recombinant mouse B7-H1/PDL1 Fc Chimera, (rm-PD-L1 cat no: 1019-B7-100).
# Splenocytes harvested in a 50 mL falcon tube by mashing mouse spleen in a 40 μm cell strainer were further treated with 1 mL ACK lysis buffer for 5 min at room temperature. After washing with 9 mL of RPMI complete media, cells were re-suspended in 3 mL of 1×PBS in a 15 mL tube. 3 mL of Histopaque was added carefully to the bottom of the tube without disturbing overlaying splenocyte suspension. After centrifuging at 800×g for 20 min at room temperature, the opaque layer of splenocytes was collected carefully without disturbing/mixing the layers. Splenocytes were washed twice with cold 1×PBS followed by total cell counting using Trypan Blue exclusion method and used further for cell based assays.
# Splenocytes were cultured in RPMI complete media (RPMI+10% fetal bovine serum+1 mM sodium pyruvate+10,000 units/mL penicillin and 10,000 μg/mL streptomycin) and maintained in a CO2 incubator with 5% CO2 at 37° C.
# CFSE Proliferation Assay: CFSE is a dye that passively diffuses into cells and hinds to intracellular proteins. 1×10^6 cells/mL of harvested splenocytes were treated with 5 μM of CFSE in pre-warmed 1×PBS/0.1% BSA solution for 10 min at 37° C. Excess CFSE was quenched using 5 volumes of ice-cold culture media to the cells and incubated on ice for 5 min. CFSE labeled splenocytes were further given three washes with ice cold complete RPMI media. CFSE labeled 1×10^5 splenocytes added to wells containing either MDA-MB231 cells (1×10^5 cells cultured in high glucose DMEM medium) or recombinant human PDL-1 (100 ng/mL) and test compounds. Splenocytes were stimulated with anti-mouse CD3 and anti-mouse CD28 antibody (1 μg/mL each), and the culture was further incubated for 72 h at 37° C. with 5% CO2. Cells were harvested and washed thrice with ice cold FACS buffer and % proliferation was analysed by flow cytometry with 488 nm excitation and 521 nm emission filters. Data Compilation, Processing and Inference: […]
# recombinant human TIM-3 = assay: Human PBMC IFN-γ release assay in the presence of recombinant TIM-3; type: cell-based; settings: 100 nM compound, plate-coated TIM-3 + anti-CD3, anti-CD28, 72 h
# Protocol: Vehicle: Milli Q water; RPMI 1640 (GIBCO, Cat #11875); Fetal Bovine Serum [Hyclone, Cat #SH30071.03]; Penicillin (10000 unit/ml)-Streptomycin (10,000 μg/ml) liquid (GIBCO, Cat #15140-122); MEM Sodium Pyruvate solution 100 mM (100×). Liquid (GIBCO, Cat #11360); Nonessential amino acid (GIBCO, Cat #11140); L-Glutamine (GIBCO, Cat #25030); Recombinant human TIM-3 (rhGi24 TIM-3/B7-H5 Fc chimera (R&D systems, cat no: 7126-B7); Anti-h/m Gi24/TIM-3/B7-H5 purified mouse monoclonal IgG2B (R&D systems, cat no: MAB7126); Mouse IgG2B isotype control (R&D Systems cat no: MAB 004); Anti human-CD3 antibody (eBiosciences—16-0039); Anti human-CD28 antibody (eBiosciences—16-0289); Histopaque (density-1.077 gm/ml) (SIGMA 1077); Trypan Blue solution (SIGMA-T8154); Hemacytometer (Bright line-SIGMA Z359629); FACS Buffer containing Phosphate Buffered Saline (PBS) pH 7.2; (HiMedia TS1006) with 0.1% Bovine Serum Albumin (BSA) (SIGMA A7050) and sodium azide (SIGMA 08591); 96-well format ELISA plates (Corning 3599); 96-well format ELISA plates (Corning 3361); BD FACS caliber (E6016); Centrifuge (Eppendorf 5810 R); Human IFN-'γ Duo set ELISA kit (R&D Systems; cat no: DY-285).
# Human PBMC IFN-γ Release Assay
# 96-well cell culture plates were pre-coated with recombinant human TIM-3 (2.5 μg/ml) and anti-human CD3 (2.5 μg/ml), and stored at 4° C. overnight. Anti-human TIM-3 and isotype control antibodies were either coated along with the TIM-3 or incubated for 30 min next day before addition of cells. On the next day, plates were washed with 1× PBS and then incubated with test compounds for 30 min. Isolated PBMC (0.1×10^6 cells/well) and anti-human CD28 antibodies (1 μg/ml) were added to the wells. The culture was further incubated for 72 h at 37° C. with 5% CO2. After 72 h of incubation the cell culture supernatants were collected after brief centrifugation at 200 g×5 min at 4° C. and processed for human IFN-γ measurement by ELISA following manufacturer's protocol (R&D Systems; DY-285).
# In brief, 96-well ELISA plates were coated with 100 μl/well of capture antibody in coating buffer and incubated overnight at 4° C. Plates were washed five times with wash buffer and further blocked with 200 μl of 1× assay diluents for 1 hr at RT. Following wash step, 100 μl of cell culture supernatants were added to wells and further incubated for 2 hr at RT. Appropriate standards were also included. After wash step, plate was incubated for one hour with 100 μl/well of detection antibody. The wash step was repeated and the plate was incubated for 30 min with 100 μl/well of Avidin-HRP. The plate was washed four times with wash buffer and subsequently incubated for 15 min with 100 μl/well of substrate solution. 50 μl of stop solution was added to each well and the plate was read at 450 nm using Gen5 ver 2.05. Delta OD values were used for calculating the concentrations. The absorbance values were plotted against the standards and the concentration of IFN-γ was determined using GraphPad Prism software. Each experimental condition was carried out in triplicates.
# The percent rescue of IFN-γ release of the selected compounds of present invention are set forth below wherein “A” refers to compounds having more than 70% rescue of IFN-γ release, “B” refers to compounds having rescue of IFN-γ release ranges from 50% to 69.9% and “C” refers to compounds having less than 50% rescue of IFN-γ release.
# T1 sequence (Q9EP73 19-238 limits assumed): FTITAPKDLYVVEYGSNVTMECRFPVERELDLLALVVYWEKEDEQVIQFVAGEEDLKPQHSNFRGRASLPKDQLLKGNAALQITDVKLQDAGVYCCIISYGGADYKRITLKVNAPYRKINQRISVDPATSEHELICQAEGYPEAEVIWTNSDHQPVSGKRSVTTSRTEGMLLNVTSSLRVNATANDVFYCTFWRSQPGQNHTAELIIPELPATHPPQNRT
Structure (SMILES),activity at 0.1 µM (PD-L1),TIM-3 (rescue of IFN γ release @ 100 nM) (recombinant human TIM-3)
CC(O)[C@H](NC(=O)N[C@@H](CC(N)=O)c1nc([C@@H](N)CCC(=O)O)no1)C(=O)O (stereo partly drawn) [Compound 1],68%,B (rescue of IFN-γ release ranges from 50% to 69.9%)
CCC(C)[C@H](NC(=O)N[C@@H](CC(N)=O)c1nc([C@@H](N)CO)no1)C(=O)O (stereo partly drawn) [Compound 2],73%,A (more than 70% rescue of IFN-γ release)
CC(O)[C@H](NC(=O)N[C@@H](CC(N)=O)c1nc([C@@H](N)Cc2ccccc2)no1)C(=O)O (stereo partly drawn) [Compound 3],62%,A (more than 70% rescue of IFN-γ release)
CC(O)[C@H](NC(=O)N[C@@H](CC(=O)O)c1nc([C@@H](N)CO)no1)C(=O)O (stereo partly drawn) [Compound 4],52%,C (less than 50% rescue of IFN-γ release)
CC(O)[C@H](NC(=O)N[C@@H](CCC(=O)O)c1nc([C@@H](N)CO)no1)C(=O)O (stereo partly drawn) [Compound 5],88%,A (more than 70% rescue of IFN-γ release)
CC(O)[C@H](NC(=O)N[C@@H](CCC(=O)O)c1nc([C@@H](N)CCCCN)no1)C(=O)O (stereo partly drawn) [Compound 6],52%,A (more than 70% rescue of IFN-γ release)
CC(O)[C@H](NC(=O)N[C@H](CC(N)=O)c1nc([C@@H](N)CO)no1)C(=O)O (stereo partly drawn) [Compound 7],74%,A (more than 70% rescue of IFN-γ release)
CC(O)[C@@H](N)c1noc([C@@H](CC(N)=O)NC(=O)N[C@H](CO)C(=O)O)n1 (stereo partly drawn) [Compound 8],68%,B (rescue of IFN-γ release ranges from 50% to 69.9%)
CC(C)[C@H](NC(=O)N[C@@H](CC(N)=O)c1nc([C@@H](N)CCCCN)no1)C(=O)O [Compound 9],138%,C (less than 50% rescue of IFN-γ release)
CSCC[C@H](N)c1noc([C@H](CC(N)=O)NC(=O)N[C@@H](CC(=O)O)C(=O)O)n1 [Compound 10],53%,C (less than 50% rescue of IFN-γ release)
NCCCC[C@H](N)c1noc([C@H](CCC(=O)O)NC(=O)N[C@@H](CO)C(=O)O)n1 [Compound 11],60%,C (less than 50% rescue of IFN-γ release)
NCCCC[C@H](N)c1noc([C@H](CC(N)=O)NC(=O)N[C@@H](CO)C(=O)O)n1 [Compound 12],41%,A (more than 70% rescue of IFN-γ release)
CC(O)[C@H](NC(=O)N[C@@H](CCCCN)c1nc([C@@H](N)CO)no1)C(=O)O (stereo partly drawn) [Compound 13],66%,C (less than 50% rescue of IFN-γ release)
COC(C)[C@H](NC(=O)N[C@@H](CC(N)=O)c1nc([C@@H](N)CO)no1)C(=O)O (stereo partly drawn) [Compound 14],84%,C (less than 50% rescue of IFN-γ release)
CCC(C)[C@H](NC(=O)N[C@H](C(=O)O)C(C)O)c1nc([C@@H](N)CO)no1 (stereo partly drawn) [Compound 15],50%,C (less than 50% rescue of IFN-γ release)
CC(O)[C@H](NC(=O)N[C@@H](CC(N)=O)c1nc(C2COCCN2)no1)C(=O)O (stereo partly drawn) [Compound 16],92%,B (rescue of IFN-γ release ranges from 50% to 69.9%)
CC(O)[C@H](NC(=O)N[C@@H](CCC(=O)O)c1nc(C2COCCN2)no1)C(=O)O (stereo partly drawn) [Compound 17],57%,C (less than 50% rescue of IFN-γ release)
N[C@@H](Cc1ccc(O)cc1)c1noc([C@@H]2CC(O)CN2C(=O)N[C@@H](Cc2ccc(O)cc2)C(=O)O)n1 (stereo partly drawn) [Compound 18],57%,C (less than 50% rescue of IFN-γ release)
N[C@@H](Cc1ccc(O)cc1)c1noc([C@@H]2CCCCN2C(=O)N[C@@H](Cc2ccc(O)cc2)C(=O)O)n1 [Compound 19],54%,C (less than 50% rescue of IFN-γ release)
CC(=O)NCCCC[C@H](NC(=O)N[C@H](C(=O)O)C(C)O)c1nc([C@@H](N)CO)no1 (stereo partly drawn) [Compound 20],37%,C (less than 50% rescue of IFN-γ release)
CC(O)[C@H](NC(=O)N[C@@H](CC(N)=O)c1nc([C@@H](N)Cc2ccc(O)cc2)no1)C(=O)O (stereo partly drawn) [Compound 21],50%,C (less than 50% rescue of IFN-γ release)
